Source: patent US4851211A, “LHRH analog formulations” (Abbott Laboratories, priority 1986, dated 1989)

Experiments:
[1] = no counterion
[2] = ionizable site of leuprolide; cited from earlier work
[3] = Bioabsorption testing: leuprolide levels after inhalation of solution aerosol (radioimmunoassay); conditions: aerosol compared with comparable intravenous dose

- solubility of leuprolide ([1]; mixtures of ethyl alcohol and fluorocarbons): ~3000 µg/mL
- equilibrium solubility of leuprolide ([1]; mixtures of fluorocarbons, ethyl alcohol and water): ~5000 µg/mL
Structure (SMILES): CCNC(=O)[C@@H]1CCCN1C(=O)[C@H](CCCNC(=N)N)NC(=O)[C@H](CC(C)C)NC(=O)[C@@H](CC(C)C)NC(=O)[C@H](Cc1ccc(O)cc1)NC(=O)[C@H](CO)NC(=O)[C@H](Cc1c[nH]c2ccccc12)NC(=O)[C@H](Cc1c[nH]cn1)NC(=O)[C@@H]1CCC(=O)N1 [leuprolide, 5-Oxo-L-prolyl-L-histidyl-L-tryptophanyl-L-seryl-L-tyrosyl-D-leucyl-L-leucyl-L-arginyl-L-prolylethylamide acetate]
- pKa, guanidine nitrogen of arginine [2]: approximately 13.0
- pKa, imidazolyl nitrogen of histidine [2]: approximately 6.0
- pKa, phenolic hydroxyl of tyrosine [2]: approximately 10.0
- plasma peak concentration [3]: approximately equals that of a comparable dose administered intravenously
